The source made the active and inactive calls.
Key:
[1] = biological target: T1, Sentrin-specific protease 8 (Homo sapiens, UniProt Q96LD8); type: functional;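 note: luminescence read-out of SENP8 inhibition, dose-response confirmation following an ultra-high-throughput screen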
T1 sequence (Q96LD8 whole entry): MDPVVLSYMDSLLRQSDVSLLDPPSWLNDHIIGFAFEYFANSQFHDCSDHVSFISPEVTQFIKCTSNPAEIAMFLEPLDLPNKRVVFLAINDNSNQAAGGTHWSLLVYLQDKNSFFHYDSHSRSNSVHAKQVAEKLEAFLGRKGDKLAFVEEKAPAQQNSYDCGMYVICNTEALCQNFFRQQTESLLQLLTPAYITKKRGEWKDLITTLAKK

[2] = biological target: T2, Protein RecA (Mycobacterium tuberculosis, UniProt P9WHJ3); assay: Fluorescence Cell-Free Homogeneous Dose Retest to Identify Inhibitors of RecA-Intein Splicing Activity. [Related pubchem assays (depositor defined):AID2097, AID2223, AID489010, AID492950]; type: functional
T2 sequence (P9WHJ3 whole entry): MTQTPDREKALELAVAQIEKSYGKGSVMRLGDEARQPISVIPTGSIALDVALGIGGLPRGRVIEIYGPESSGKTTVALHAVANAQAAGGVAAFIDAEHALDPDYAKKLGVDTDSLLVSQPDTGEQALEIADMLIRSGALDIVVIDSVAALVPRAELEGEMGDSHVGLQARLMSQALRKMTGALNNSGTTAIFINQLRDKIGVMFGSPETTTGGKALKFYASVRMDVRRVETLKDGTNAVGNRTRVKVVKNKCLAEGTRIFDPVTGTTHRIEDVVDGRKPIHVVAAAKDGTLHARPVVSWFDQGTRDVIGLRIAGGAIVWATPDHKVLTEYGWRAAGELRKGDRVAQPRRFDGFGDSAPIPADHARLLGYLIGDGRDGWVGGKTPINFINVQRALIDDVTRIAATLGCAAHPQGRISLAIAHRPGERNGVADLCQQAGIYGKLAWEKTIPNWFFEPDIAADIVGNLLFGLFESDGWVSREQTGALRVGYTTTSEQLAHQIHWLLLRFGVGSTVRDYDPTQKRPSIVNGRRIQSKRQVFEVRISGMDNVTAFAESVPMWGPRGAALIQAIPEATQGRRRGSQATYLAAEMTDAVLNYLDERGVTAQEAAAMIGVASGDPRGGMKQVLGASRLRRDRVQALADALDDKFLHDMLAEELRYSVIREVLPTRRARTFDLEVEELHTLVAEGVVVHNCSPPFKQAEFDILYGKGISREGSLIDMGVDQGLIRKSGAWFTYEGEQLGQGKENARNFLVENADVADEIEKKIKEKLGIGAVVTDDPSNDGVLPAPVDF

[3] = biological target: T3, Aminopeptidase N (Plasmodium falciparum FcB1/Columbia, UniProt O96935); assay: P. falciparum M1AAP inhibitors, biochemical, fluorogenic H-Leu-NHMec substrate, 1536-well (AID 1445); set-up: species or system Plasmodium falciparum 3D7, 3D7
T3 sequence (O96935 whole entry): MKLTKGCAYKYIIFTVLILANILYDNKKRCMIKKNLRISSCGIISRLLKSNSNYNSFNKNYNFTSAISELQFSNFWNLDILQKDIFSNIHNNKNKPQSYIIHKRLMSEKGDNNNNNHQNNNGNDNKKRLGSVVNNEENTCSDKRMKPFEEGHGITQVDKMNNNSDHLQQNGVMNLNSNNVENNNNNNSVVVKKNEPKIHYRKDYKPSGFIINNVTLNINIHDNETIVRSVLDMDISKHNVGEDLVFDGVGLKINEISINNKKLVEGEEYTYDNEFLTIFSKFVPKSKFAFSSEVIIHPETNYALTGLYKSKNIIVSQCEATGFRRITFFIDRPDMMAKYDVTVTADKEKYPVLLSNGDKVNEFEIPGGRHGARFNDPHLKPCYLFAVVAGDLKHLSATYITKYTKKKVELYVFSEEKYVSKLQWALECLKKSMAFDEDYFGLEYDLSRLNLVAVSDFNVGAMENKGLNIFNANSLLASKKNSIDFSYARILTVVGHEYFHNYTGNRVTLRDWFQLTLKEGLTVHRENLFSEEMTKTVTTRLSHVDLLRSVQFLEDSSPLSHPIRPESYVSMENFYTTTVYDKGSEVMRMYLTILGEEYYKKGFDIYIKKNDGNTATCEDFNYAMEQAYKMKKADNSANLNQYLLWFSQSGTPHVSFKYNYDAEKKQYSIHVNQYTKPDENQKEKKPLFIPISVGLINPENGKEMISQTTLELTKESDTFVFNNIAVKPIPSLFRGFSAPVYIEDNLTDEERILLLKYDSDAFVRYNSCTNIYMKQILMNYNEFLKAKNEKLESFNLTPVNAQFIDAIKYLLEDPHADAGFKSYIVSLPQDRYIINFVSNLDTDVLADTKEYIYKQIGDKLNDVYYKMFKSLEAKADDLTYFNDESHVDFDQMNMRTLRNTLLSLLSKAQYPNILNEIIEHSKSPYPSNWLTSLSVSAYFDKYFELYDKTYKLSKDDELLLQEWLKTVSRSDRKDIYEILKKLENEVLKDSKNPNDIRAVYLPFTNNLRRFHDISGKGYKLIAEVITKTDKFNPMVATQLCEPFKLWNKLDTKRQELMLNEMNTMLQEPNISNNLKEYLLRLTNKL

SMILES	IC50 [1]	EC50 [2]	IC50 [3]
COc1cc(C(=O)c2nccc3cc(OC)c(OC)cc23)c([N+](=O)[O-])cc1OC	4.97 µM (active)	0.16 µM (active)	–
c1ccc2c(Nc3nnc(-c4ccncc4)s3)cccc2c1	> 100 µM (inactive)	–	–
N=C1S/C(=C\c2ccc(-c3ccccc3C(=O)O)o2)C(=O)N1c1ccc2c(c1)OCO2	–	–	10.3 µM (active)
N#Cc1c(O)nc(SCC(=O)N2c3ccccc3Sc3ccccc32)nc1-c1ccccc1	–	9.18 µM (active)	11.2 µM (active)

From ChEMBL document CHEMBL1201862, “PubChem BioAssay data set” (2004)
